The target of assay [1] is T1, D(4) dopamine receptor (Homo sapiens) (UniProt P21917).
T1 sequence (whole entry): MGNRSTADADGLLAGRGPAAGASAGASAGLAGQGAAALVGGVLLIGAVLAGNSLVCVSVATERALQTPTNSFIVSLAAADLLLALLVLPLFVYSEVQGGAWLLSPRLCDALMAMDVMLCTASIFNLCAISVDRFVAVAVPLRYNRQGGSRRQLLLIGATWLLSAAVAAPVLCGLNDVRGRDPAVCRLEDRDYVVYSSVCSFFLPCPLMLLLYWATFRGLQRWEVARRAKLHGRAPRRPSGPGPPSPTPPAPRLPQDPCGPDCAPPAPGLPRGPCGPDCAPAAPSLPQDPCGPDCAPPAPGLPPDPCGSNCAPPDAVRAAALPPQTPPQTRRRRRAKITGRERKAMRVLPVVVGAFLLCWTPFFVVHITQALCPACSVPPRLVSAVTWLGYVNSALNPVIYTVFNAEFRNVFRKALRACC
Briefly: Inhibition of mitogenic [3H]thymidine uptake in CHO 10001 cells expressing Dopamine receptor D4. The format is functional, cell-based.

The target in assay [2] is 5-hydroxytryptamine receptor 2A (Rattus norvegicus, UniProt P14842). Briefly: Binding affinity against rat brain 5-hydroxytryptamine 2A receptor.
Chain of 5-hydroxytryptamine receptor 2A (P14842 whole entry): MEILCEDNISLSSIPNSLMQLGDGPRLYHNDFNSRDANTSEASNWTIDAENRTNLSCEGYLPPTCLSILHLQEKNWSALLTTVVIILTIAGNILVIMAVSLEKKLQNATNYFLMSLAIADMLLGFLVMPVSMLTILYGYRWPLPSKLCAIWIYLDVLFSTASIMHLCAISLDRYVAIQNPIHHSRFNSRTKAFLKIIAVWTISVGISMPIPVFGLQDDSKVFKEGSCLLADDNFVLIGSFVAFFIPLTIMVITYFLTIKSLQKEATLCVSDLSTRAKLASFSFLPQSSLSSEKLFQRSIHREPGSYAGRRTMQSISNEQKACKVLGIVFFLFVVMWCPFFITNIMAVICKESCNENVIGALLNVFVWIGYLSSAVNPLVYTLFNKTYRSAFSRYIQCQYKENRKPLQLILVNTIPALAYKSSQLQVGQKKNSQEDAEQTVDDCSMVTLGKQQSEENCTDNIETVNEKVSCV
Assay [3] addresses T2, Adrenergic receptor alpha-1 (Rattus norvegicus, UniProt P15823+P23944+P43140).
T2 sequence (P15823 whole entry): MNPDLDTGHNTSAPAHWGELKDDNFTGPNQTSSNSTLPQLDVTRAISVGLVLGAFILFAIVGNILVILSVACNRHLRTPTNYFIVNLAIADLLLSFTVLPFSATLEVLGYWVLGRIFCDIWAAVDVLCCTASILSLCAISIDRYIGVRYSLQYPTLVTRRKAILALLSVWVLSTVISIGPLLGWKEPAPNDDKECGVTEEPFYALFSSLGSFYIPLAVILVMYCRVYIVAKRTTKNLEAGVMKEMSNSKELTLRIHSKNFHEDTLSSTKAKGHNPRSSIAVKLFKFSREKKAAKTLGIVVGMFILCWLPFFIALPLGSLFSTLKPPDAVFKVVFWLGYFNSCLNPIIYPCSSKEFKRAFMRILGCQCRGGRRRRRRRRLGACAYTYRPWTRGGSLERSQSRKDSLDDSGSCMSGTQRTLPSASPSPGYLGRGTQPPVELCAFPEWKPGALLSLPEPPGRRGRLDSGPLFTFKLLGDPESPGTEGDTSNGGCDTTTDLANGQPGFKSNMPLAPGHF
T2 sequence (P23944 whole entry): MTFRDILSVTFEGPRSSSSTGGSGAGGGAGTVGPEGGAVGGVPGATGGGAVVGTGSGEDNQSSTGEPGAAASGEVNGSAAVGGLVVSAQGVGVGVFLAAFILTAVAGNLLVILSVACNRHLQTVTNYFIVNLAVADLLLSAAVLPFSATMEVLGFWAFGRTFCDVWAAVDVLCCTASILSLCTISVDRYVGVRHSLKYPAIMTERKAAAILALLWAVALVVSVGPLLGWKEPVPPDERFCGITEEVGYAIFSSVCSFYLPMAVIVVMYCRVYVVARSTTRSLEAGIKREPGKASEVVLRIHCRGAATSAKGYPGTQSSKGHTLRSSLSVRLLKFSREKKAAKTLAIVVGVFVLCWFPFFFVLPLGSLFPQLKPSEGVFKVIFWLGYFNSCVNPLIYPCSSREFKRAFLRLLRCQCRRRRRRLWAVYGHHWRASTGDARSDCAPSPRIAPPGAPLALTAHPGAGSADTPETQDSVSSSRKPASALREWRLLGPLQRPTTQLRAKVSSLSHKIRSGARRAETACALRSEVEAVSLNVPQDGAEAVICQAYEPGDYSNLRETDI
T2 sequence (P43140 whole entry): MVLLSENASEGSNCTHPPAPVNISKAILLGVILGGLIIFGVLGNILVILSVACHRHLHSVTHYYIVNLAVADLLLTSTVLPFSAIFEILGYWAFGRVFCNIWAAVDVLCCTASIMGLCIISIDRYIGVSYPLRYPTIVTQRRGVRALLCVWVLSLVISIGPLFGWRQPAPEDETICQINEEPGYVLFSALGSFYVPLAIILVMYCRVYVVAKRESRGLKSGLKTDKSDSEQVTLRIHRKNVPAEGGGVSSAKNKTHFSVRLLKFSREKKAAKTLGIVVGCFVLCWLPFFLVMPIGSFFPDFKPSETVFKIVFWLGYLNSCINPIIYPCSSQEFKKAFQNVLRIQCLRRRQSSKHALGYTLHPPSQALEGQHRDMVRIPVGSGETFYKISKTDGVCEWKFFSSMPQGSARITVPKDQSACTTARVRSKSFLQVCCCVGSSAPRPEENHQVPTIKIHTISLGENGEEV
Briefly: Binding affinity against rat brain Alpha-1 adrenergic receptor.

Assay [4] has as its target T3, 5-hydroxytryptamine receptor 1A (Rattus norvegicus, UniProt P19327).
T3 sequence (P19327 whole entry): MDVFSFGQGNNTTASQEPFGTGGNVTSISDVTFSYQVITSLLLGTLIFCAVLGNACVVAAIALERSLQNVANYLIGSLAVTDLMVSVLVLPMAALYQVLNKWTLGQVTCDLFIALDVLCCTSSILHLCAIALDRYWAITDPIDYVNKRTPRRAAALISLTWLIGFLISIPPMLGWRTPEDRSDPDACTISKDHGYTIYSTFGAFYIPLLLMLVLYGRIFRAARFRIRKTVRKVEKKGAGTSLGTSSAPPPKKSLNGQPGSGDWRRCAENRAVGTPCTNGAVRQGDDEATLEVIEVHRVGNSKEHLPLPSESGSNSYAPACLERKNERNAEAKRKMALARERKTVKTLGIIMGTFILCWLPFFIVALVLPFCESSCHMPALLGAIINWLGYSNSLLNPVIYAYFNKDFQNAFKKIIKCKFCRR
Briefly: Binding affinity against rat brain 5-hydroxytryptamine 1A receptor.

In assay [5] the target is T4, Adrenergic receptor alpha-2 (Rattus norvegicus, UniProt P22086+P19328+P22909).
T4 sequence (P22086 whole entry): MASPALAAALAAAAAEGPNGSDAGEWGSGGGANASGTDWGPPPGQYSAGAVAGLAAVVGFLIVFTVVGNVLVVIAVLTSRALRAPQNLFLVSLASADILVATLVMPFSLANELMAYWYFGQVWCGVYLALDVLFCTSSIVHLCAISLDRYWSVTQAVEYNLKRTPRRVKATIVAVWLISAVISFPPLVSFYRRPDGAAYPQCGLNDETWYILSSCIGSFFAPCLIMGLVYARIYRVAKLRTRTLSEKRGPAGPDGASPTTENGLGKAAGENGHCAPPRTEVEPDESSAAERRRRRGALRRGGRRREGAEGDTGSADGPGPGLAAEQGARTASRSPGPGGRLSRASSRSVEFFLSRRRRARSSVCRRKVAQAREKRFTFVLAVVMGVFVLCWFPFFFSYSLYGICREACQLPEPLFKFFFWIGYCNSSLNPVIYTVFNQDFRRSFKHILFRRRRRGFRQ
T4 sequence (P19328 whole entry): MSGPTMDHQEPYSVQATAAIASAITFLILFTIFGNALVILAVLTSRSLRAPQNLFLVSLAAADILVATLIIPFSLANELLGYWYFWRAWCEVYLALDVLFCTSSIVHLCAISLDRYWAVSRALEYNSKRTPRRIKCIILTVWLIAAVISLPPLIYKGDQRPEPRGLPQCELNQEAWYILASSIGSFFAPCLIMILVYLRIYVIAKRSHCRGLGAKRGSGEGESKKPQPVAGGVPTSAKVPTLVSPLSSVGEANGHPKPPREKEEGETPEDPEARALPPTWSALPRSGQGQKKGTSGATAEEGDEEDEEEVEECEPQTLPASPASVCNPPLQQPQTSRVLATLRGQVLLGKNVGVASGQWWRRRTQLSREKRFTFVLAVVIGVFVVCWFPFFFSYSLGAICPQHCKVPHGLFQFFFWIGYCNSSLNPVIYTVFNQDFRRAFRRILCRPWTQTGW
T4 sequence (P22909 whole entry): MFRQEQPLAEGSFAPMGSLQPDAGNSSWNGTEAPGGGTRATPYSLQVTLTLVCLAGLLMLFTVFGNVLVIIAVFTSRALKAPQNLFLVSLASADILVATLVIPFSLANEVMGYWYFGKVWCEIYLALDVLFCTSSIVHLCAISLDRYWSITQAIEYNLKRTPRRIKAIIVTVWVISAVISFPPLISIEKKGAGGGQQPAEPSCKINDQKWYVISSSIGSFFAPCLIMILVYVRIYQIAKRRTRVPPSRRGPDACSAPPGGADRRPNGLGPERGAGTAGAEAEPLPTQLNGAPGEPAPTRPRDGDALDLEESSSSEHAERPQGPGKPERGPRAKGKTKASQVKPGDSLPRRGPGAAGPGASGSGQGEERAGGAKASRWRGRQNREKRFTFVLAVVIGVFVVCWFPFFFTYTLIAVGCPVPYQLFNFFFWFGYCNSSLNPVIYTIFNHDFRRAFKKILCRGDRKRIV
Briefly: Binding affinity against rat brain Alpha-2 adrenergic receptor.

The next assay deals with T5, D(4) dopamine receptor (Homo sapiens, UniProt P21917).
T5 sequence (P21917 whole entry): T1 sequence (whole entry)
Briefly: biochemical.

The next assay concerns the target D(3) dopamine receptor (Homo sapiens, UniProt P35462). Briefly: biochemical.

The structures appear in SMILES notation.

Chain of D(3) dopamine receptor (P35462 whole entry): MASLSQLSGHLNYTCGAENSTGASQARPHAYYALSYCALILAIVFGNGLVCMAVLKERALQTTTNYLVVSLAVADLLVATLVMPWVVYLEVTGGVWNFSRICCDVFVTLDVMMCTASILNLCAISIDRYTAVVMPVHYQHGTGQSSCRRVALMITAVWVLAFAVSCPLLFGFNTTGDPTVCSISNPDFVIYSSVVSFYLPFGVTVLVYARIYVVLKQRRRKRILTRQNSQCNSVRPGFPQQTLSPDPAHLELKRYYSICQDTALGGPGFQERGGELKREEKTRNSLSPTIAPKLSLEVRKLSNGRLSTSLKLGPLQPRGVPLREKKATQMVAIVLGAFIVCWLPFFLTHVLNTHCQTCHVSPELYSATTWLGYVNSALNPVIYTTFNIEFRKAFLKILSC
Description for D(3) dopamine receptor: Ability to displace [3H]spiperone from human cloned Dopamine receptor D3 expressed in CHO K-1 cells in vitro.

`COc1ccc2c3c(c(=O)oc2c1)CN(Cc1ccccc1)CC3` gave an Intrinsic activity in assay [1] of 23.2%. Usually Ki stands for the equilibrium dissociation constant of an inhibitor or competing ligand from its target. The low end stands for tighter binding, the high end for weaker binding. As for `Cc1ccc2c3c(c(=O)oc2c1)CN(Cc1ccccc1)CC3`, the Ki in assay [2], in assay [3], in assay [4] and in assay [5] was more than 700 nM each time. The molecule also returned an Intrinsic activity in assay [1] of 12.4%. Consider `COc1ccc2c3c(c(=O)oc2c1)CN(c1ccccc1)CC3`, for which the inhibitory constant (Ki) on D(4) dopamine receptor is more than 3300 nM. For `COc1ccc2c3c(c(=O)oc2c1)CN(Cc1ccc(C)cc1)CC3`, the Intrinsic activity in assay [1] is 10%. For `COc1ccc2c3c(c(=O)oc2c1)CN(CCc1ccccc1)CC3`, the Ki at D(4) dopamine receptor was 7.9 nM. Consider `O=c1oc2cc(O)ccc2c2c1CN(Cc1ccc(Cl)cc1)CC2`, for which the inhibitory constant (Ki) on D(3) dopamine receptor turned out to be 317 nM; on D(4) dopamine receptor, 2.4 nM. For the same molecule, in assay [1], the Intrinsic activity is 23.2%. With `COc1ccc2c3c(c(=O)oc2c1)CN(Cc1cccc(Cl)c1)CC3`, the Intrinsic activity in assay [1] came out at 30.7%. Also, the inhibitory constant (Ki) on D(4) dopamine receptor worked out at 17 nM. On D(3) dopamine receptor, `COc1ccc2c3c(c(=O)oc2c1)CN(Cc1ccc([N+](=O)[O-])cc1)CC3` displayed an inhibition constant (Ki) of more than 3000 nM. Also, the Intrinsic activity in assay [1] was 25.2%. As to `COc1ccc2c3c(c(=O)oc2c1)CN(Cc1ccc(C(F)(F)F)cc1)CC3`, the Intrinsic activity in assay [1] was found to be 0%. As to `COc1ccc2c3c(c(=O)oc2c1OC)CN(Cc1ccccc1)CC3`, the values for the Ki at D(3) dopamine receptor and at D(4) dopamine receptor were 1300 nM and 16 nM, respectively. In the case of `Cc1ccc2c3c(c(=O)oc2c1)CN(Cc1ccc(F)cc1)CC3`, the values for the Ki at D(3) dopamine receptor and at D(4) dopamine receptor were 2210 nM and 7.5 nM, respectively. The Intrinsic activity in assay [1] was determined as 0%. The matching figures for `COc1ccc2c3c(c(=O)oc2c1)CN(Cc1ccc(Cl)cc1)CC3`: 2780 nM, 8.7 nM and 26.8%. `COc1ccc2c3c(c(=O)oc2c1)CCN(Cc1ccccc1)C3`: the inhibition constant Ki on D(4) dopamine receptor was more than 3300 nM. With `Cc1ccc2c3c(c(=O)oc2c1)CN(Cc1ccc(Cl)cc1)CC3`, the Ki at D(4) dopamine receptor worked out at 11 nM. This counts as double-digit nanomolar.

Turning to `COc1ccc2c3c(c(=O)oc2c1)CN(Cc1ccc(F)cc1)CC3`, the inhibitory constant (Ki) is 548 nM at D(3) dopamine receptor and 4.3 nM on D(4) dopamine receptor. For the same molecule, the Intrinsic activity in assay [1] worked out at 35.2%.

`Cc1cc(O)c2c3c(c(=O)oc2c1)CN(Cc1ccccc1)CC3` returned an inhibition constant (Ki) on D(4) dopamine receptor of 145 nM. With `COc1cc2oc(=O)c3c(c2cc1OC)CCN(Cc1ccc(Cl)cc1)C3`, the Ki on D(3) dopamine receptor is more than 3000 nM. The Intrinsic activity in assay [1] was 21.2%. For `COc1ccc2c3c(c(=O)oc2c1)CN(C(=O)c1ccccc1)CC3`, the affinity at D(4) dopamine receptor corresponds to a Ki of 420 nM.

(Values after ChEMBL document CHEMBL1130121, “Chromeno[3,4-c]pyridin-5-ones: selective human dopamine D4 receptor antagonists as potential antipsychotic agents” (J Med Chem, 1997).)
